Laboratory results published in PMC12521730, “Quantitative dual-isotope preclinical SPECT/CT imaging and biodistribution of the mercury-197m/g theranostic pair with [^197m/gHg]HgCl2 and a [^197m/gHg]Hg-tetrathiol complex as a platform for radiopharmaceutical development” (EJNMMI Radiopharmacy and Chemistry, 2025).

Assay: Ex vivo biodistribution (gamma counter)
Type: in vivo, healthy male C57BL/6 mice
Conditions: 2 h post administration
Procedure: For animal injection, the tracer was prepared at high molar activity. Radiolabeling of H4Tetrathiol (10^–2 M in DMSO; 40 μL for imaging, 20 μL for bioD) (or DMSO, for [^197m/gHg]HgCl2 mice) with [^197m/gHg]HgCl2 (imaging: 26.7 MBq total m + g, 62 μL; bioD: 13.04 MBq total m + g, 31 μL) was performed in a mixture of ammonium acetate buffer (1 M; pH 7; 198 μL for imaging or 149 μL for bioD) and 6 M NaOH (72 μL or 38 μL required to achieve a pH of 7.5 after addition of activity, for imaging or BioD labeling, respectively). The reaction was allowed to stand for 1 h at 37 °C and quantitative (> 99%) non-isolated percentage radiochemical yield (%RCY) was confirmed via the iTLC methods mentioned above. Further, 100 µL of the reaction was diluted with 50 µL of PBS Tween-20 (0.01 M sodium phosphate, 0.15 M NaCl, 0.05% Tween-20) for imaging mice, or 50 µL of the reaction was diluted with 100 µL of PBS Tween-20 for BioD mice. The tracers were prepared immediately before injection to avoid radiolysis and minimize the tracer loss to any surfaces due to its lipophilicity. The injected doses of each isomer, ^197mHg and ^197gHg, were quantified by measuring an aliquot of known volume of each tracer preparation via HPGe gamma spectroscopy and decay corrected for time of injection using the Eqs. (1) and (2).
The study was conducted in compliance with the guidelines set by the Canadian Council on Animal Care (CCAC) and approved by the Animal Care Committee (ACC) at the University of British Columbia (A20-0132). A total of eight healthy male C57BL/6 mice weighing approximately 30 g for group 1 and 25 g for group 2 were used in the study. The mice were divided into two experimental groups: group 1 (n = 4) received free [^197m/gHg]HgCl2, while group 2 (n = 4) received [^197m/gHg]Hg-Tetrathiol. Within each group, one mouse was allocated for imaging, while the rest were designated for ex vivo biodistribution analysis. For SPECT imaging, the designated mice were anesthetized using isoflurane via a precision vaporizer. […] Once anesthetized, each imaging mouse received an intravenous (IV) injection via the lateral tail vein of 150 μL of [^197m/gHg]HgCl2 (0.492 MBq ^197mHg + 3.171 MBq ^197gHg) or [^197m/gHg]Hg-Tetrathiol (0.899 MBq ^197mHg + 4.230 MBq ^197gHg) in PBS Tween-20 (0.01 M Na Phosphate, 0.15 M NaCl, 0.05% Tween-20).
Mice received an IV injection of [^197m/gHg]HgCl2 (0.275 MBq ^197mHg + 1.758 MBq ^197gHg, 150 μL) or [^197m/gHg]Hg-Tetrathiol (0.384 MBq ^197mHg + 1.733 MBq ^197gHg, 150 μL) (n = 3 per group) via the lateral tail vein using a Tailveiner restrainer. After the injection, the mice were returned to their experimental cages and allowed unrestricted movement. Biodistribution studies were conducted 2 h after administration. Mice were humanely euthanized with an overdose of isoflurane followed by cardiac puncture to collect blood pool activity. The organs of interest were fully extracted, cleaned of blood without rinsing, weighed, and analysed for radioactivity using a calibrated gamma counter with the 55–93 keV energy window for ^197gHg and the 110–160 keV energy window for ^197mHg (Packard Cobra II, Perkin Elmer, Waltham, MA, USA). The stomach and intestines were carefully cleaned prior to analysis to remove residual contents. For tissues and fluids that could not be fully removed (muscle, blood and bone) activity values were extrapolated based on standardised organ weights for age- and sex-matched mice tables to ensure accurate normalization (Davies and Morris [1993]; Foster et al. [2014]). The stomach and whole intestines were cleaned before analysis. The radioactivity measurements were decay corrected for time of injection using the Eqs. (1) and (2). The results are reported as the percentage of the injected activity per gram of tissue (%IA/g) and percentage of the injected activity per tissue (%IA/organ).

Q: Which “Animal 4 (%IA/g) g: heart” value (Hg-197g) does the source give for O=C(CC[S-])OCC(COC(=O)CC[S-])(COC(=O)CC[S-])COC(=O)CC[S-].[Hg+2] [[^197m/gHg]Hg-Tetrathiol] here?
A: 0.72 %IA/g

Q: And the “Animal 4 (%IA/g) g: kidneys” value (Hg-197g)?
A: 2.58 %IA/g

Q: What about the “Animal 4 (%IA/g) g: large intestine” value (Hg-197g) of the same molecule?
A: 0.04 %IA/g

Q: What about the “Animal 4 (%IA/g) g: liver” value (Hg-197g) of the same molecule?
A: 460.16 %IA/g

Q: And the “Animal 4 (%IA/g) g: lungs” value (Hg-197g)?
A: 6.68 %IA/g

Q: What about the “Animal 4 (%IA/g) g: muscle” value (Hg-197g) of the same molecule?
A: 0.02 %IA/g

Q: What about the “Animal 4 (%IA/g) g: pancreas” value (Hg-197g) of the same molecule?
A: 0.05 %IA/g

Q: And the “Animal 4 (%IA/g) g: small intestine” value (Hg-197g)?
A: 0.13 %IA/g

Q: What about the “Animal 4 (%IA/g) g: spleen” value (Hg-197g) of the same molecule?
A: 73.76 %IA/g

Q: What about the “Animal 4 (%IA/g) g: stomach” value (Hg-197g) of the same molecule?
A: 0.12 %IA/g

Q: And the “Animal 4 (%IA/g) g: tail” value (Hg-197g)?
A: 5.66 %IA/g

Q: And the “Animal 4 (%IA/g) g: urine” value (Hg-197g)?
A: 0.03 %IA/g

Q: What about the “Average (%IA/Organ): bladder” value (Hg-197g) of the same molecule?
A: 0.00 %IA/Organ

Q: And the “Average (%IA/Organ): blood” value (Hg-197g)?
A: 0.16 %IA/Organ

Q: What about the “Average (%IA/Organ): bone” value (Hg-197g) of the same molecule?
A: 2.70 %IA/Organ

Q: What about the “Average (%IA/Organ): brain” value (Hg-197g) of the same molecule?
A: 0.01 %IA/Organ

Q: What about the “Average (%IA/Organ): feces” value (Hg-197g) of the same molecule?
A: 0.00 %IA/Organ

Q: And the “Average (%IA/Organ): heart” value (Hg-197g)?
A: 0.09 %IA/Organ

Q: What about the “Average (%IA/Organ): kidneys” value (Hg-197g) of the same molecule?
A: 1.13 %IA/Organ

Q: What about the “Average (%IA/Organ): large intestine” value (Hg-197g) of the same molecule?
A: 0.02 %IA/Organ

Q: What about the “Average (%IA/Organ): lungs” value (Hg-197g) of the same molecule?
A: 0.97 %IA/Organ

Q: And the “Average (%IA/Organ): muscle” value (Hg-197g)?
A: 0.19 %IA/Organ

Q: What about the “Average (%IA/Organ): pancreas” value (Hg-197g) of the same molecule?
A: 0.01 %IA/Organ

Q: What about the “Average (%IA/Organ): small intestine” value (Hg-197g) of the same molecule?
A: 0.02 %IA/Organ

Q: And the “Average (%IA/Organ): spleen” value (Hg-197g)?
A: 4.17 %IA/Organ

Q: What about the “Average (%IA/Organ): stomach” value (Hg-197g) of the same molecule?
A: 0.04 %IA/Organ

Q: What about the “Average (%IA/Organ): tail” value (Hg-197g) of the same molecule?
A: 1.05 %IA/Organ

Q: And the “Average (%IA/Organ): urine” value (Hg-197g)?
A: 0.00 %IA/Organ

Q: What about the “Average Hg-197g (%IA/g): bladder” value (Hg-197g) of the same molecule?
A: 0.049 %IA/g

Q: What about the “Average Hg-197g (%IA/g): blood” value (Hg-197g) of the same molecule?
A: 0.11 %IA/g

Q: And the “Average Hg-197g (%IA/g): bone” value (Hg-197g)?
A: 1.42 %IA/g

Q: What about the “Average Hg-197g (%IA/g): brain” value (Hg-197g) of the same molecule?
A: 0.025 %IA/g

Q: And the “Average Hg-197g (%IA/g): feces” value (Hg-197g)?
A: 0.023 %IA/g

Q: What about the “Average Hg-197g (%IA/g): heart” value (Hg-197g) of the same molecule?
A: 0.71 %IA/g

Q: And the “Average Hg-197g (%IA/g): kidneys” value (Hg-197g)?
A: 2.96 %IA/g

Q: And the “Average Hg-197g (%IA/g): large intestine” value (Hg-197g)?
A: 0.079 %IA/g

Q: What about the “Average Hg-197g (%IA/g): liver” value (Hg-197g) of the same molecule?
A: 202.37 %IA/g

Q: What about the “Average Hg-197g (%IA/g): lungs” value (Hg-197g) of the same molecule?
A: 7.10 %IA/g

Q: What about the “Average Hg-197g (%IA/g): muscle” value (Hg-197g) of the same molecule?
A: 0.017 %IA/g

Q: And the “Average Hg-197g (%IA/g): pancreas” value (Hg-197g)?
A: 0.058 %IA/g

Q: And the “Average Hg-197g (%IA/g): small intestine” value (Hg-197g)?
A: 0.11 %IA/g

Q: What about the “Average Hg-197g (%IA/g): spleen” value (Hg-197g) of the same molecule?
A: 64.43 %IA/g

Q: What about the “Average Hg-197g (%IA/g): stomach” value (Hg-197g) of the same molecule?
A: 0.37 %IA/g

Q: What about the “Average Hg-197g (%IA/g): tail” value (Hg-197g) of the same molecule?
A: 2.18 %IA/g

Q: What about the “Average Hg-197g (%IA/g): urine” value (Hg-197g) of the same molecule?
A: 0.029 %IA/g

Q: What about the “Animal 1 (%IA/g) m: bladder” value (Hg-197m) of the same molecule?
A: 0.05 %IA/g

Q: And the “Animal 1 (%IA/g) m: blood” value (Hg-197m)?
A: 0.10 %IA/g

Q: And the “Animal 1 (%IA/g) m: bone” value (Hg-197m)?
A: 2.09 %IA/g

Q: What about the “Animal 1 (%IA/g) m: brain” value (Hg-197m) of the same molecule?
A: 0.04 %IA/g

Q: What about the “Animal 1 (%IA/g) m: feces” value (Hg-197m) of the same molecule?
A: 0.04 %IA/g

Q: What about the “Animal 1 (%IA/g) m: heart” value (Hg-197m) of the same molecule?
A: 0.47 %IA/g

Q: What about the “Animal 1 (%IA/g) m: kidneys” value (Hg-197m) of the same molecule?
A: 5.53 %IA/g

Q: And the “Animal 1 (%IA/g) m: large intestine” value (Hg-197m)?
A: 0.14 %IA/g

Q: What about the “Animal 1 (%IA/g) m: lungs” value (Hg-197m) of the same molecule?
A: 9.10 %IA/g

Q: And the “Animal 1 (%IA/g) m: muscle” value (Hg-197m)?
A: 0.01 %IA/g

Q: And the “Animal 1 (%IA/g) m: pancreas” value (Hg-197m)?
A: 0.06 %IA/g

Q: What about the “Animal 1 (%IA/g) m: small intestine” value (Hg-197m) of the same molecule?
A: 0.16 %IA/g

Q: And the “Animal 1 (%IA/g) m: spleen” value (Hg-197m)?
A: 74.83 %IA/g

Q: And the “Animal 1 (%IA/g) m: stomach” value (Hg-197m)?
A: 0.19 %IA/g

Q: And the “Animal 1 (%IA/g) m: tail” value (Hg-197m)?
A: 1.72 %IA/g

Q: And the “Animal 1 (%IA/g) m: urine” value (Hg-197m)?
A: 0.03 %IA/g

Q: And the “Animal 2 (%IA/g) m: bladder” value (Hg-197m)?
A: 0.02 %IA/g
